Measurements taken from patent US8633203B2, “Use of pterocarpans as active anti-cellulite ingredients” (Symrise AG, priority 2009, dated 2014).

Assays:
[1] = system: Primary human subcutaneous preadipocytes differentiated to adipocytes; test: lipolysis assay, free glycerol in supernatant; assay type: cell-based; conditions: for Activity with regard to lipolysis (neither inhibited nor stimulated): max. use concentration 25 ppm, about 20 hours incubation; for IC50 inhibition of the lipolysis: mean values of at least 2 independent tests
Method: Primary human subcutaneous preadipocytes (Lonza) are seeded in a 96-well microtiter plate at a concentration of 1×10^4 cells/well. Until confluence is reached, cultivation takes place at 37° C. and 5% CO2 in DMEM, enriched with 10% foetal calf serum. To induce the differentiation of preadipocytes to adipocytes there follows the addition DMEM enriched with 10% foetal calf serum, with added 10 μg/ml insulin, 1 μM dexamethasone and 1 mM IBMX (3-isobutyl-1-methylxanthine). A cultivation for 14 to 20 days follows. During this time, the medium can optionally be replaced by DMEM, enriched with 10% foetal calf serum.
Various concentrations of the test substances are applied to the cells in DMEM, with bovine serum albumen added. After about 20 hours of incubation, the quantification takes place of free glycerol in the supernatant of the cells, which is discharged therefrom after hydrolysis of triglycerides in the cells and is a measure of the lipolysis of the cells. The quantification of the free glycerol is carried out based on an enzymatic method with a free glycerol reagent.
The stimulation of the lipolysis in the presence of test substances is calculated according to the following equation: […]
The […] is calculated from the lipolysis stimulation [%] in a series of dilutions of tested samples. This is the concentration at which the lipolysis is 50% stimulated.
The inhibition of the lipolysis in the presence of test substances is calculated according to the following equation: […]
The IC50 is calculated from the lipolysis inhibition [%] in a series of dilutions of tested samples. This is the concentration at which the lipolysis is 50% inhibited.

lipoprotein lipase (LPL) = target: T1, lipoprotein lipase (LPL) (Mus musculus, UniProt P11152); test: inhibition of lipoprotein lipase from differentiated 3T3-L1 cells, MUF oleate hydrolysis; assay type: biochemical; conditions: LPL from 3T3-L1 cells; MUF oleate substrate; mean values of at least 2 independent tests
T1 construct: endogenous in cells; host or cells: differentiated 3T3-L1 cells (mouse); heparin-released supernatant
T1 sequence (P11152 28-474): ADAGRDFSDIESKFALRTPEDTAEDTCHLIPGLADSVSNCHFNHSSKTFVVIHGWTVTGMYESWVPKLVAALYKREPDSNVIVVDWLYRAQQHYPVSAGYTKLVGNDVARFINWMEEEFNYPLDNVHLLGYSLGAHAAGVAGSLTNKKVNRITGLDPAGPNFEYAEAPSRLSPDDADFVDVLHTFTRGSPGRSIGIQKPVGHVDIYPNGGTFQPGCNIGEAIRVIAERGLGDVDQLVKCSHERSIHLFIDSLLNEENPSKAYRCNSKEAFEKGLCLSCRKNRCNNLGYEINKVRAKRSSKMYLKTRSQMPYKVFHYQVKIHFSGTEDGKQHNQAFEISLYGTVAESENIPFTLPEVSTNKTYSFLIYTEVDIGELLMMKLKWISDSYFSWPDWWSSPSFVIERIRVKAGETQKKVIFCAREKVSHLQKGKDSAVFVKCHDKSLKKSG
Method: The results of the inhibition of the PL are used as a preliminary test and are confirmed on LPL. To obtain LPL, 3T3-L1 cells (mouse embryonal fibroblast adipocyte cell line) are seeded in a 6-well plate with collagen I-coating in a concentration of 3×10^5 cells/well. The cultivation and differentiation of the cells takes place analogously to the details in Example 2 (adipogenesis assay). During the differentiation LPL, is increasingly expressed. The LPL is present in a membrane-bound state and is released by one hour incubation with heparin solution at 2-8° C. in the supernatant of the cells.
The LPL thus obtained, in the presence of test substances in different use concentrations, has methylumbelliferyl oleate (MUF oleate) added as the substrate. Fluorescent methylumbelliferyl (MUF) is produced by hydrolysis of the MUF oleate by LPL and is quantified. The inhibition of the hydrolysis of the MUF oleate is a measure of the inhibition of the activity of the LPL and therefore the lipogenesis.
The IC50 is calculated from the inhibition of the LPL [%] in a series of dilutions of tested samples. This is the concentration at which the activity of the LPL and therefore the lipogenesis is 50% inhibited.

pancreatic lipase (PL) = target: T2, pancreatic lipase (PL) (Sus scrofa, UniProt P00591); test: inhibition of pancreatic lipase, MUF oleate hydrolysis; assay type: biochemical; conditions: MUF oleate substrate; mean values of at least 2 independent tests
T2 construct: purchased Sigma-Aldrich
T2 sequence (P00591 1-450): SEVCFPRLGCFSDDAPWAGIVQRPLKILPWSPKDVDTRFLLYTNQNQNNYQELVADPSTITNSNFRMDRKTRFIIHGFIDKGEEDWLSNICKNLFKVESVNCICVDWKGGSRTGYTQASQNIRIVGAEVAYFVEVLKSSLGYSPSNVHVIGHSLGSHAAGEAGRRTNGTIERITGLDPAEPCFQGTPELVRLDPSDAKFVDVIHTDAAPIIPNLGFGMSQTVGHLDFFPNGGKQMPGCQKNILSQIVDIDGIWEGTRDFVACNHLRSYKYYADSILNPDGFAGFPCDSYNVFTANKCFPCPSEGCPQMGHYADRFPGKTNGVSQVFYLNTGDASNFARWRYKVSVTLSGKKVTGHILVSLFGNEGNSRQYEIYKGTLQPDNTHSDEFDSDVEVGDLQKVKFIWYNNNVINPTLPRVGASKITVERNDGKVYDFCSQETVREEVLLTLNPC
Text: Lipogenesis is taken to mean the storing of triglycerides in adipocytes. The inhibition of this storage can take place by means of the inhibition of the activity of extracellular lipoprotein lipase (LPL) in that the hydrolysis of extracellular triglycerides and therefore the absorption of free fatty acids by adipocytes is reduced. As a preliminary test, the inhibition of pancreatic lipase (PL) is investigated.
PL (Sigma-Aldrich), in the presence of test substances in different use concentrations has methylumbelliferyl oleate (MUF oleate) added as a substrate. Fluorescent methylumelliferon (MUF), is produced by hydrolysis of the MUF oleate by PL and is quantified. The inhibition of the hydrolysis of the MUF oleate is a measure of the inhibition of activity of the PL.
The IC50 is calculated from the inhibition of the PL [%] in a series of dilutions of tested samples. This is the concentration, at which the activity of the PL is 50% inhibited.

3T3-L1-cells = test: adipogenesis inhibition assay (Nile Red lipid staining); assay type: cell-based, mouse; conditions: mean values of at least 2 independent tests
Method: 3T3-L1-cells (mouse embryonal fibroblast-like adipocyte cell line) are seeded in a 48-well plate with collagen I-coating in a concentration of 3×10^4 cells/well. After 72 h cultivation at 37° C. and 5% CO2 in DMEM (Dulbecco's Modified Eagle Medium), enriched with 10% calf serum, various concentrations of the test substances in DMEM, enriched with 10% foetal calf serum and to which are added 1 μg/ml insulin, 0.25 μM dexamethasone and 0.5 mM IBMX (3-isobutyl-1-methylxanthine), are added and incubated for a further 48 h. A media change takes place, in that DMEM, enriched with 10% foetal calf serum and with 1 μg/ml insulin added, are applied. After renewed cultivation for 48 h, a further media change takes place, in which DMEM, enriched with 10% foetal calf serum, is applied.
After a further incubation for 72 h, the intracellularly stored lipids are quantified as a measure for the differentiation of the cells by measuring the fluorescence after dyeing of the lipids with the fluorescent dye Nile Red.
The inhibition of the adipogenesis in the presence of the test substances is calculated according to the following equation: […]
The IC50 is calculated from the adipogenesis inhibition (%) in a series of dilutions of tested samples. This is the concentration at which the adipogenesis is 50% inhibited.

fat cells = test: own investigations on differentiation of fat cells; assay type: cell-based; conditions: depending on the use concentration
[2] = phototoxic potential, photo-irritation factor according to OECD guideline 432; conditions: own investigations
Text: The phototoxic potential is expressed as a photo-irritation factor (PIF). […] It applies here that with a PIF of less than 2, no phototoxic potential exists while a phototoxic potential exists at a PIF of more than 5. With a PIF of between 2 and 5, there is possibly a phototoxic potential.

Compound | Activity with regard to lipolysis (neither inhibited nor stimulated) [1] | IC50 inhibition of the LPL (lipoprotein lipase (LPL)) [ppm] | IC50 inhibition of the PL (pancreatic lipase (PL)) [ppm] | IC50 adipogenesis inhibition (3T3-L1-cells) [ppm] | also measured
COc1ccc2c(c1)OC[C@H]1c3ccccc3O[C@@H]21 [3-methoxypterocarpan] | No activity (25 ppm) | 67.0 | 350 | 50.9 | –
COc1ccc(-c2coc3cc(O)ccc3c2=O)cc1 [Formononetin, reference compound] | – | – | – | – | IC50 inhibition of the lipolysis [1]: 53.7 ppm
Oc1ccc2c(c1)OC[C@H]1c3cc4c(cc3O[C@@H]21)OCO4 [Maackiain] | No activity (25 ppm) | 104.2 | 147 | 25.5 | –
COc1ccc2c(c1)OC1c3ccc(O)cc3OCC21 (stereo not drawn) [Medicarpin] | No activity (25 ppm) | 788 | 425 | 54.0 | –
COc1cc(O)c2c(=O)c(-c3ccc(O)c(O)c3)coc2c1 [Santal, reference compound] | – | – | – | – | IC50 inhibition of the lipolysis [1]: 1.92 ppm; effect on lipolysis (route iii), in words ([1]; own investigations): inhibition of lipolysis
O=c1c(-c2ccc(O)cc2)coc2cc(O)cc(O)c12 [genistein] | – | – | – | – | effect on differentiation of fat cells, in words (fat cells): inhibited or stimulated
COc1ccc(-c2coc3cc(O)c(OC)cc3c2=O)cc1O [odoratin] | – | – | – | – | phototoxic potential, in words [2]: notable phototoxic potential
cladastrin | – | – | – | – | phototoxic potential, in words [2]: notable phototoxic potential
